From patent US6740641B2 (priority 2001, dated 2004)
Where two headings read alike, the source gives them in different places.

What was measured:
Test in all cases: biochemical
[1] = target: T1, recombinant delta opiod receptor expressed in CHO-K1 cells (Homo sapiens, UniProt P41143); details: 0.2 nM [3H]-naltrindole, Table 1; read-out: Delta-Receptor Binding Affinity Ki
T1 construct: purchased Receptor Biology Inc., Beltsville, Md; host or cells: CHO-K1

[2] = target: T2, recombinant mu-opioid receptor expressed in CHO-K1 cells (Homo sapiens, UniProt P35372); assay type: binding; details: for selectivity for mu opioid receptors relative to delta and kappa opioid receptors: from Ki data of Table 4
T2 construct: purchased Receptor Biology Inc; host or cells: CHO-K1
T2 sequence (P35372 whole entry): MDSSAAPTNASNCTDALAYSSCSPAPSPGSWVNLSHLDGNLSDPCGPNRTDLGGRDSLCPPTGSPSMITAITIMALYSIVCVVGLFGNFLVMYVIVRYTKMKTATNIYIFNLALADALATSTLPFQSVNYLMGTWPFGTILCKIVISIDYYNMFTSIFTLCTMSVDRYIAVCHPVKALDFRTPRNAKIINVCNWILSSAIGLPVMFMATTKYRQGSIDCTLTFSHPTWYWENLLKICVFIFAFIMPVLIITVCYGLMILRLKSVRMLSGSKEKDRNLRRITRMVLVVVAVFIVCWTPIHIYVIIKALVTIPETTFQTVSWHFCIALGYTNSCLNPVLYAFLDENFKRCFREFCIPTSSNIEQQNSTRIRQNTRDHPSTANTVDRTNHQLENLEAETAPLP

[3] = target: T3, recombinant kappa opiod receptor expressed in HEK 293 cells (Homo sapiens, UniProt P41145); assay type: binding
T3 construct: purchased Receptor Biology Inc; host or cells: HEK 293
T3 sequence (P41145 whole entry): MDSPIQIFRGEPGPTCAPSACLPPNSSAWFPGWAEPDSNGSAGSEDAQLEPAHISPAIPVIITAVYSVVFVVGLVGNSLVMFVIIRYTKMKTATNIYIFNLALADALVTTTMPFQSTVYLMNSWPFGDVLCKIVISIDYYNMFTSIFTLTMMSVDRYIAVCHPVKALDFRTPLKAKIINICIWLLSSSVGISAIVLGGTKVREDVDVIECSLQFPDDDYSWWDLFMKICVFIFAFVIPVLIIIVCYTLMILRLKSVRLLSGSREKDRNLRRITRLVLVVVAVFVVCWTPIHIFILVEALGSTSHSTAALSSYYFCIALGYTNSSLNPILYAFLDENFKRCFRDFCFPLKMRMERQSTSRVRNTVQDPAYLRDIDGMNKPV

[4] = 0.2 nM [3H]-diprenorphine, Table 3, read-out: Mu-Receptor Binding Affinity Ki
[5] = 0.15 nM [3H]-bremazocine, Table 2, read-out: Kappa-Receptor Binding Affinity Ki

T1 sequence (P41143 whole entry): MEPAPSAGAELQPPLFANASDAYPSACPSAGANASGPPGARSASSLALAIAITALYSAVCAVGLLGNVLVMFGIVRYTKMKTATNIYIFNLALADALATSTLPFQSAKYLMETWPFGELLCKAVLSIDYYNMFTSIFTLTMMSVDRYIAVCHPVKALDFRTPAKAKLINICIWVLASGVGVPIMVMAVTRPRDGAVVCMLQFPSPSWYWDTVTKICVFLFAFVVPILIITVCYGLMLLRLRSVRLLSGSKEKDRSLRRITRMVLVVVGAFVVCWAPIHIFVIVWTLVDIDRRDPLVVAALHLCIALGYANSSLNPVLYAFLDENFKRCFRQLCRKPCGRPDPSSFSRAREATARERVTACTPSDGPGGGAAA

SMILES	Ki [1] [µM]	mu selectivity compared with morphine sulfate [2]	Ki [2, 4] [µM]	selectivity for mu opioid receptors relative to delta and kappa opioid receptors [2]	Ki [3, 5] [µM]	Ki [3] [µM]	Ki [2] [µM]
CN1CC[C@]23c4c5ccc(OC6O[C@H](CO)[C@@H](O)[C@H](O)[C@H]6O)c4O[C@H]2C(=O)CC[C@H]3[C@H]1C5 (stereo partly drawn) [Hydromorphone-3-glucoside, 3-O-Glucosylhydromorphone]	4.5	higher than that of morphine sulfate	0.051	high selectivity for mu opioid receptors	2.4	–	–
CN1CCC23c4c5ccc(O)c4O[C@H]2[C@H](OC2OC(CO)C(O)C(O)C2O)CCC3C1C5 (stereo partly drawn) [Dihydroisomorphine-6-glucoside, 6-O-Glucosyldihydroisomorphine]	0.868	higher than that of morphine sulfate	0.0047	high selectivity for mu opioid receptors	0.44	–	–
Oc1ccc2c3c1O[C@H]1c4oc5ccccc5c4C[C@@]4(O)[C@@H](C2)N(CC2CC2)CC[C@]314 [Naltriben, reference compound]	–	–	–	–	–	0.0024	–
CN1CC[C@]23c4c5ccc(O)c4O[C@H]2[C@@H](O)CC[C@H]3[C@H]1C5 [Dihydromorphine, reference compound]	–	–	–	–	–	–	0.00039
